Data on nine compounds can be found in patent publication US5346910A (priority 1992, dated 1994).

The structures appear in SMILES notation.

Assay [1] concerns the target high affinity agonist conformation of the muscarinic cholinergic receptor (rat brain cerebral cortex homogenate). Put plainly: [3H]-Cis-methyldioxolane (3H-CD) binding assay (high affinity). The note with it: 1.0 nM 3H-CD, 25° C., 120 minutes.
The target in assay [2] is muscarinic cholinergic receptor (rat brain cerebral cortex homogenate). Format: binding. The note with it: 0.25 nM 3H-QNB, 25° C., 120 minutes.
In another assay the test system is aged monkey. The note with it: aged monkeys; cited from earlier work.
In the next assay the test system is SDAT patients. The note with it: compared to physostigmine; cited from earlier work.

For orientation: Ki means a measure of affinity in units of concentration, obtained from inhibition or displacement. Consider `CC1=CC(=O)N(CC#CCN(C)C)C1=O` [1-[4-(Dimethylamino)-2-butynyl]-3-methyl-1H-pyrrole-2,5-dione], for which the Ki in assay [1] was 3400 nM; in assay [2], 1400 nM. Consider `COC(=O)C1=CCCN(C)C1` [arecoline], for which, in the assay on aged monkey, the “performance in aged monkey model of SDAT” value is recorded as “significant improvement in performance”. The “improvement in SDAT patients” value in the assay on SDAT patients is listed as “more consistent improvement”. For `CN(C)CC#CCN1C(=O)C=CC1=O` [1-[4-(Dimethylamino)-2-butynyl]-1H-pyrrole-2,5-dione], the Ki turned out to be 1480 nM in assay [1] and 1740 nM in assay [2]. For `CSC1CC(=O)N(CC#CCN2CCCC2)C1=O` (centres unmarked) [3-(Methylthio)-1-[4-(1-pyrrolidinyl)-2-butynyl]-2,5-pyrrolidinedione] the same measures were 1780 nM and 2200 nM.

With `CSC1CC(=O)N(CC#CCN(C)C)C1=O` (centres unmarked) [1-[4-(Dimethylamino)-2-butynyl]-3-(methylthio)-2,5-pyrrolidinedione], the Ki in assay [1] is 1600 nM; in assay [2] it was greater than 100000 nM. `O=C1CCCN1CC#CCN1CCCC1` [oxotremorine]: the “performance in aged monkey model of SDAT” value in the assay on aged monkey was “significant improvement in performance”. With `CC1=CC(=O)N(CC#CC[N+](C)(C)C)C1=O` [4-(2,5-Dihydro-3-methyl-2,5-dioxo-1H-pyrrol-1-yl)-N,N,N-trimethyl-2-butyne-1-aminium iodide], the Ki in assay [1] was determined as 560 nM; in assay [2] it was 2300 nM.

Consider `C[N+](C)(C)CC#CCN1C(=O)C=CC1=O` [4-(2,5-Dihydro-2,5-dioxo-1H-pyrrol-1-yl)-N,N,N-trimethyl-2-butyne-1-aminium iodide], for which the values for the inhibition constant (Ki) in assay [1] and in assay [2] were 290 nM and 11000 nM, respectively. On the same counts, the results for `CC1=CC(=O)N(CC#CCN2CCCC2)C1=O` [3-Methyl-1-[4-(1-pyrrolidinyl)-2-butynyl]-1H-pyrrole-2,5-dione] are 530 nM and 200 nM.
